Measured values taken from patent US5516777A, “Condensed pyrazole derivatives, and androgen inhibitor” (Otsuka Pharmaceutical Co., Ltd., priority 1992, dated 1996).

Experiments:
[1] = Oral absorption (blood level after oral administration); assay type: in vivo; conditions: Wistar male rat, 30 mg/ml/kg, serum
Method: After administration, the rat is fixed on a plate with nails and strings. […] The serum was obtained by centrifuging with a blood serum separating tube ([…] tube). To 100 μl of the serum thus obtained was added 300 μl of methanol, and the mixture was centrifuged. Next, 50 μl of the supernatant was applied to a high-performance liquid chromatography, and the blood level of the compound was measured. Conditions of the high-performance liquid chromatography are as follows: Column: […] 300, 4.6 mm diameter and 150 mm length Eluent: 48% CH3 CN-0.01% TFA Flow rate: 1 ml/minute Detection: UV 290 nm Sensitivity: 0.01 AUFS Colume temperature: 50° C. As Comparative Example 10, the compound expressed in the following chemical formula disclosed in U.S. Pat.

[2] = In vitro drug metabolism in rat liver extract; assay type: in vitro ADME, male Wistar rats; conditions: pH 7.4, 37° C.; for remaining at 5 min / remaining at 0.25 h / remaining at 0.5 h / remaining at 1 h: rat liver extract; for remaining at 5 min: read-out: Residual amount of test compound, 5 min.; for remaining at 0.25 h: 15 min., read-out: Residual amount of test compound, 15 min.; for remaining at 0.5 h: 30 min., read-out: Residual amount of test compound, 30 min.; for remaining at 1 h: 60 min., read-out: Residual amount of test compound, 60 min.; for half-life: half-life in the rat liver extract, read-out: Half-time period
Method: 2. In vitro drug metabolism in rat liver extract
The resistance of the compound against metabolic degradation by rat liver extract was investigated.
The male Wistar rats (weighing about 200 g) were used after fasting for 24 hours. The rat was sacrificed under ether anesthesia, and the livers were removed and were placed onto the ice.
The liver was minced with scissors under ice-cooling, and homogenized in the presence of 4 volumes of 1.15% KCl-0.1M phosphate buffer (pH 7.4) with a Potter type homogenizer. The homogenates were centrifuged at 9,000×g for 10 minutes at 4° C., and the supernatant filtered through the cheese-cloth was used as an enzyme solution.
The constitution of the reaction mixture was shown in below. 0.1M Buffer was sufficiently bubbled in 95% O2 -5% CO2 gas before use.
Glucose 6-phosphate (60.8 mg.ml)
Nicotineamide (9.16 mg/ml)
The tested samples were dissolved in dimethyl sulfoxide. MgCl2 ·6H2 O was dissolved in a distilled water, and all other reagents were dissolved in 0.1M phosphate buffer. The reaction was initiated by adding enzyme solution, and shaked at 37° C. with 120 cycles/minutes in Spitz test tubes with stoppers. The reaction was stopped by adding methanol after 5, 15, 30 and 60 minutes.
After termination of the reaction, samples were mixed by using of a Vortex mixer, and centrifuged at 3,000 rpm for 10 minutes. The supernatant was applied to a high-performance liquid chromatography of which conditons are shown in below. A residual amount of the mother compound was determined at certain time intervals, whererby half-life of the compound in the rat liver extract was calculated.
Column: Chemcosorb 5C18-300 Å 4.6 mm diameter and 150 mm length
Colume temperature: 50° C.

[3] = target: T1, rat prostate androgen receptor (Rattus norvegicus, UniProt P15207); conditions: 1 nM ^3 H-mibolerone, 20 hours at 0° C., rat ventral prostate cytosol; read-out: Inhibitory activity on mibolerone specific binding [IC50 (M)]
T1 sequence (P15207 1-902): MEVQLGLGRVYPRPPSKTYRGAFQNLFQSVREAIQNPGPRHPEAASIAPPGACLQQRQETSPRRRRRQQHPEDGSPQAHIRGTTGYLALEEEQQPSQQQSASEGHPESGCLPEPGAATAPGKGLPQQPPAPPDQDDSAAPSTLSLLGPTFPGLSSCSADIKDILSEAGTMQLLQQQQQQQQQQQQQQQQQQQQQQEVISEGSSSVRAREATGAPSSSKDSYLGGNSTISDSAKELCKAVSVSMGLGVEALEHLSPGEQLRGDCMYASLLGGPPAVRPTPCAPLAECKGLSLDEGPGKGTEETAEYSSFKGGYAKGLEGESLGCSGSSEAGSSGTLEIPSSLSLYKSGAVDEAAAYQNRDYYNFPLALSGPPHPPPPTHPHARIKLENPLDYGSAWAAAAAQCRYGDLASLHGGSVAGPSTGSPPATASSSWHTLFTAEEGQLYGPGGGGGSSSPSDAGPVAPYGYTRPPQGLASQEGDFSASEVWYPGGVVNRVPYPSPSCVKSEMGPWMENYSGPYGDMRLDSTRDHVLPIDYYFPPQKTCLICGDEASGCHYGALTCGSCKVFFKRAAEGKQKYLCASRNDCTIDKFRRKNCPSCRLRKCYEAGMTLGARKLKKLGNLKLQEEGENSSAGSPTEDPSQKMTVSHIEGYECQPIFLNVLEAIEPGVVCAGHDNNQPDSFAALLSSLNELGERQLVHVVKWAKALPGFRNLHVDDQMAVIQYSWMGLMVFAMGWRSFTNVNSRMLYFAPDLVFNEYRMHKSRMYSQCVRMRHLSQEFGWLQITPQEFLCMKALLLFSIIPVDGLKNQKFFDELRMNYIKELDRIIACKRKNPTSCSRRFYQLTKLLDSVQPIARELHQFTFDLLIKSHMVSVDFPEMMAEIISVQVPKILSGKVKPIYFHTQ
Method: Assay of inhibitory activity to binding of ^3 H-mibolerone on rat prostate androgen receptor
(1) Preparation of Cytosol from Rat Prostate
The rats were killed 24 hours after castration, and the ventral prostate glands were removed, and was gently homogenized, with three volume of buffer solution A (1.5 mM EDTA, 2 mM dithiothreitol, 10 mM molybdate sodium, 10% by volume of glycerol, 10 mM NaF, 25 mM phosphate sodium, pH 7.2) on ice-water bath, in Polytron, and Potter type homogenizer. The obtained homogenate was filtrated through double gauze, and centrifuged at 105,000×g for 60 minutes at 4° C., and the supernatant was obtained as cytoplasm fraction.
(2) Measurement of Specific binding of ^3 H-mibolerone to Prostate Cytoplasm Androgen Receptor
To the cytoplasm fraction obtained in (1) was added ^3 H-mibolerone (87.0 Ci/millimol), so that a final concentration is adjusted to 1 nM, and at the same time, in order to block binding of ^3 H-mibolerone to progestin receptor, triamsinolone acetonide was added to a final concentration of 5 μM, and the final volume was adjusted to 0.4 ml with buffer solution A, and the reaction mixture was incubated for 20 hours at 0° C. After incubation, 0.5 ml of 60% hydroxylapatite slurry (washed and equilibrate with a buffer solution B: 10 mM NaH2 PO4, 20 mM tris-hydrochloric acid, pH 7.2) was added, and incubated for 10 minutes at 0° C., the solution was transferred onto a glass fiber filter, and washed five times with 5 ml portions of buffer solution B containing 0.1% (weight/volume) of Triton X-100, to remove free ^3 H-mibolerone. This glass fiber was transferred into vial, and 10 ml of aquasol- 2 was added, and the radioactivity was measured, and the total binding amount of ^3 H-mibolerone on prostate cytoplasm androgen receptor was determined.
The nonspecific binding amount was determined similarly by adding an unlabeled 5α-DHT in the reaction solution to a final concentration of 1 μM. The difference between the total binding amount and nonspecific binding amount was determined as the specific binding amount on the androgen receptor.
(3) Inhibitory Activity of Sample Compounds on ^3 H-mibolerone Specific Binding
The various concentrations of compounds obtained in the experiments were added simultaneously with ^3 H-mibolerone to incubate same as in (2), and the specific binding amount of ^3 H-mibolerone on androgen receptor was determined. Comparing this value with the value obtained in (2), the IC50 value of inhibitory activity of the compounds on ^3 H-mibolerone specific binding was determined.

| Structure (SMILES) | concentration at 4 h ([1]; 30 mg/kg) | concentration at 8 h ([1]; 30 mg/kg) | Blood Level, 20 minutes ([1]; 20 minutes) | Blood Level, 1 hours ([1]; 1 hour) | Blood Level, 2 hours ([1]; 2 hours) | remaining at 5 min [2] | remaining at 0.25 h [2] | remaining at 0.5 h [2] | remaining at 1 h [2] | half-life [2] | IC50 [3] | concentration at 20 min ([1]; 30 mg/kg, 20 minutes) | concentration at 1 h ([1]; 30 mg/kg, 1 hour) | concentration at 2 h ([1]; 30 mg/kg, 2 hours) |
| --- | --- | --- | --- | --- | --- | --- | --- | --- | --- | --- | --- | --- | --- | --- |
| CCc1ccccc1NS(=O)(=O)c1ccc(-c2cnn3c(O)ncnc23)cc1 [Comparative Example 10, reference compound] | 112 ng/mL | 31 ng/mL | 0 ng/mL | 0 ng/mL | 0 ng/mL | – | – | – | – | – | – | – | – | – |
| Oc1ncnc2c(-c3ccc(Cc4ccccc4)cc3)cnn12 [Example 1, 8-(4-benzylphenyl)-4-hydroxypyrazolo[1,5-a]-1,3,5-triazine] | 1420 ng/mL | 731 ng/mL | – | – | – | 92.2% | 62.4% | 60.2% | 42.9% | 0.75 h | 2.8e-07 M | 1590 ng/mL | 2690 ng/mL | 1250 ng/mL |
| COc1cccc(Cc2ccc(-c3cnn4c(O)ncnc34)cc2OC)c1 [Example 11] | – | – | – | – | – | 98.3% | 98.8% | 91.5% | 87.9% | > 1 h | 1.8e-08 M | – | – | – |
| COc1cc(-c2cnn3c(O)ncnc23)ccc1Cc1cccc(C)c1 [Example 12] | – | – | – | – | – | 93% | 91.8% | 97.4% | 90.8% | > 1 h | 2.3e-08 M | – | – | – |
| Cc1cccc(Cc2ccc(-c3cnn4c(O)ncnc34)cc2)c1 [Example 13, 4-hydroxy-8-[4-(3-methylphenylmethyl)phenyl]pyrazolo[1,5-a]-1,3,5-triazine] | – | – | – | – | – | 106% | 100% | 97.6% | 81.4% | > 1 h | 1.2e-07 M | – | – | – |
| Cc1ccccc1Cc1ccc(-c2cnn3c(O)ncnc23)cc1 [Example 14, 4-hydroxy-8-[4-(2-methylphenylmethyl)phenyl]pyrazolo[1,5-a]-1,3,5-triazine] | – | – | – | – | – | 82.9% | 77.8% | 82.5% | 55.5% | > 1 h | 6.4e-07 M | – | – | – |
| COc1cccc(Cc2ccc(-c3cnn4c(O)ncnc34)cc2)c1 [Example 15, 4-hydroxy-8-[4-(3-methoxyphenylmethyl)phenyl]pyrazolo[1,5-a]-1,3,5-triazine] | – | – | – | – | – | 86.1% | 68.9% | 64.7% | 51.9% | > 1 h | 9.9e-08 M | – | – | – |
| CC(c1ccccc1)c1ccc(-c2cnn3c(O)ncnc23)cc1 (stereo not drawn) [Example 19, 4-hydroxy-8-[4-(α-methylbenzyl)phenyl]pyrazolo[1,5-a]-1,3,5-triazine] | – | – | – | – | – | 94.4% | 84.7% | 68.3% | 42.4% | 0.867 h | 3.9e-08 M | – | – | – |
| COc1cccc(Cc2ccc(-c3cnn4c(O)ccnc34)cc2)c1 [Example 28, 7-hydroxy-3-[4-(3-methoxyphenylmethyl)phenyl]pyrazolo[1,5-a]pyrimidine] | – | – | – | – | – | 88.5% | 74.3% | 66% | 53.4% | > 1 h | 1.2e-07 M | – | – | – |
